ChEMBL document CHEMBL1146671, “Non-peptide alpha v beta 3 antagonists. Part 7: 3-Substituted tetrahydro-naphthyridine derivatives” (Bioorg Med Chem Lett, 2004)

Test system: not listed separately
Test: Bioavailability in dog
Assay type: ADME, organism-based, Canis lupus familiaris
Settings: in vivo

Row | bioavailability | SMILES
1 | 65% | COc1ccc([C@H](CC(=O)O)N(C)C(=O)CCCCc2nc3c(cc2C)CCCN3)cn1
2 | 76% | COc1ccc([C@H](CC(=O)O)N(C)C(=O)CCCCc2ccc3c(n2)NCCC3)cn1

Test system: not listed separately
Test: Half-life of compound was determined in dogs
Assay type: ADME, organism-based, Canis lupus familiaris
Settings: dog, in vivo

Row | half-life | SMILES
3 | 294 min | COc1ccc([C@H](CC(=O)O)N(C)C(=O)CCCCc2nc3c(cc2C)CCCN3)cn1
4 | 348 min | COc1ccc([C@H](CC(=O)O)N(C)C(=O)CCCCc2ccc3c(n2)NCCC3)cn1

Test system: not listed separately
Test: Clearance of compound was determined in dogs
Assay type: ADME, organism-based, Canis lupus familiaris
Settings: dog, in vivo

Row | clearance | SMILES
5 | 2.4 mL/min/kg | COc1ccc([C@H](CC(=O)O)N(C)C(=O)CCCCc2nc3c(cc2C)CCCN3)cn1

Molecular target: Integrin alpha-V/beta-3 (Homo sapiens, UniProt P05106+P06756)
Sequence (P05106 27-788 limits assumed): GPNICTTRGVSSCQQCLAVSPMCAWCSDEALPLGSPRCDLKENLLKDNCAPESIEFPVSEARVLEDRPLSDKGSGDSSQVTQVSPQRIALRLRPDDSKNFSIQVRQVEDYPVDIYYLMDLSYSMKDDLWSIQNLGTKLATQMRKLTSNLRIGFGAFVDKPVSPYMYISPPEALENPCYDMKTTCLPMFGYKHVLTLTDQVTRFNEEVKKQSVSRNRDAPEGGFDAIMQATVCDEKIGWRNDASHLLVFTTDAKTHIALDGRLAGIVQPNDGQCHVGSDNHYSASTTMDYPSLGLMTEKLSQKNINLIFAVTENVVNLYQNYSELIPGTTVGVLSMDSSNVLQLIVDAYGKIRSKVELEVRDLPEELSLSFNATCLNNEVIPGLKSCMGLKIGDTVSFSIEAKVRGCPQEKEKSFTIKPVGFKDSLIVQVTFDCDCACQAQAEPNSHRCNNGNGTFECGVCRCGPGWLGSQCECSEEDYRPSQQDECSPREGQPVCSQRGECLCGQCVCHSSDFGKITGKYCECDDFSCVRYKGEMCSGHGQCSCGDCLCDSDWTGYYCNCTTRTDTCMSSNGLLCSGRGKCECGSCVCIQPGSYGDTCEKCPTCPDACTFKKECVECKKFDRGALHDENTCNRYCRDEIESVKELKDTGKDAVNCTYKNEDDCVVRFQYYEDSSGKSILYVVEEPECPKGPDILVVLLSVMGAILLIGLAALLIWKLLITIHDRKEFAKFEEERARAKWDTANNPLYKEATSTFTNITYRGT
Sequence (P06756 31-889 limits assumed): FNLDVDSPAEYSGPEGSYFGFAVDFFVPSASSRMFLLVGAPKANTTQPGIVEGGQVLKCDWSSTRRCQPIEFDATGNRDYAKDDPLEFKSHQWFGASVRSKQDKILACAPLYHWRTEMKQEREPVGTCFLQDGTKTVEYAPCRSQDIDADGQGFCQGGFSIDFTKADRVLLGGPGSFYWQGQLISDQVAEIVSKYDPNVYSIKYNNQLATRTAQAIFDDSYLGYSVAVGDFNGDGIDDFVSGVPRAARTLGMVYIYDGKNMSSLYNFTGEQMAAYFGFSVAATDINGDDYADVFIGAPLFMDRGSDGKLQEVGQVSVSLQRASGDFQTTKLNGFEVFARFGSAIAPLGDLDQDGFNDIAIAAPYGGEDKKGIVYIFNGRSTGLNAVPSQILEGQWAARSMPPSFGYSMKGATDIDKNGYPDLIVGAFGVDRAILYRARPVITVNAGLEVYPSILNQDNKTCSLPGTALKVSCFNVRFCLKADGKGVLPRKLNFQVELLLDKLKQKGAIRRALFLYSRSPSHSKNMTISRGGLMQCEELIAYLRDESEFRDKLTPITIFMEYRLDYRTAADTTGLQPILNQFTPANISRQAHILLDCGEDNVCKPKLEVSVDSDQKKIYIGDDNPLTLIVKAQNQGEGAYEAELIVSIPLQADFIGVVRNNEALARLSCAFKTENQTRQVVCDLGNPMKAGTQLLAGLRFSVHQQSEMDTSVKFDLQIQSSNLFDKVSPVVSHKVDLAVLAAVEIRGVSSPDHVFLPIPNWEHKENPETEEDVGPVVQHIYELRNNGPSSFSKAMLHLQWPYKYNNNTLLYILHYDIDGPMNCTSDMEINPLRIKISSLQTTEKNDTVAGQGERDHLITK
Sequence (P06756 891-1048 limits assumed): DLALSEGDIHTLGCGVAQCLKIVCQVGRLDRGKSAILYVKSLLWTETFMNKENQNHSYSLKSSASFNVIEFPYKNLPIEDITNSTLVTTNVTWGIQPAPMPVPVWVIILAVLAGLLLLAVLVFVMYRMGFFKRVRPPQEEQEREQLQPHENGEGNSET
Test: Displacement of [125I]L-775,219 from human recombinant alphaV-beta3 integrin
Assay type: protein-complex assay
Settings: not given

Row | SMILES | IC50
6 | COc1ccc([C@H](CC(=O)O)N(C)C(=O)CCCCc2nc3c(cc2-c2ccccc2)CCCN3)cn1 | 0.9 nM
7 | COc1ccc([C@H](CC(=O)O)N(C)C(=O)CCCCc2nc3c(cc2NC(C)=O)CCCN3)cn1 | 0.6 nM
8 | COc1ccc([C@H](CC(=O)O)N(C)C(=O)CCCCc2nc3c(cc2[N+](=O)[O-])CCCN3)cn1 | 36.7 nM
9 | COc1ccc([C@H](CC(=O)O)N(C)C(=O)CCCCc2nc3c(cc2C#N)CCCN3)cn1 | 16.5 nM
10 | COc1ccc([C@H](CC(=O)O)N(C)C(=O)CCCCc2nc3c(cc2N)CCCN3)cn1 | 0.4 nM

More lines, in order of falling IC50, values ahead:

Row | IC50 | SMILES
11 | 2.3 nM | COc1ccc([C@H](CC(=O)O)N(C)C(=O)CCCCc2nc3c(cc2Br)CCCN3)cn1
12 | 0.9 nM | COc1ccc([C@H](CC(=O)O)N(C)C(=O)CCCCc2nc3c(cc2NS(C)(=O)=O)CCCN3)cn1
13 | 0.7 nM | COc1ccc([C@H](CC(=O)O)N(C)C(=O)CCCCc2ccc3c(n2)NCCC3)cn1
14 | 0.3 nM | COc1ccc([C@H](CC(=O)O)N(C)C(=O)CCCCc2nc3c(cc2C)CCCN3)cn1
15 | 0.3 nM | C=Cc1cc2c(nc1CCCCC(=O)N(C)[C@@H](CC(=O)O)c1ccc(OC)nc1)NCCC2

Test system: not listed separately
Test: Hammett constant was determined
Assay type: functional
Settings: not given

Row | SMILES | Sigmap
16 | COc1ccc([C@H](CC(=O)O)N(C)C(=O)CCCCc2nc3c(cc2-c2ccccc2)CCCN3)cn1 | 0.05
17 | COc1ccc([C@H](CC(=O)O)N(C)C(=O)CCCCc2nc3c(cc2NC(C)=O)CCCN3)cn1 | 0
18 | COc1ccc([C@H](CC(=O)O)N(C)C(=O)CCCCc2nc3c(cc2C)CCCN3)cn1 | -0.14
19 | COc1ccc([C@H](CC(=O)O)N(C)C(=O)CCCCc2nc3c(cc2[N+](=O)[O-])CCCN3)cn1 | 0.81
20 | C=Cc1cc2c(nc1CCCCC(=O)N(C)[C@@H](CC(=O)O)c1ccc(OC)nc1)NCCC2 | -0.14
21 | COc1ccc([C@H](CC(=O)O)N(C)C(=O)CCCCc2nc3c(cc2Br)CCCN3)cn1 | 0.26
22 | COc1ccc([C@H](CC(=O)O)N(C)C(=O)CCCCc2nc3c(cc2NS(C)(=O)=O)CCCN3)cn1 | 0.03
23 | COc1ccc([C@H](CC(=O)O)N(C)C(=O)CCCCc2ccc3c(n2)NCCC3)cn1 | 0
24 | COc1ccc([C@H](CC(=O)O)N(C)C(=O)CCCCc2nc3c(cc2C#N)CCCN3)cn1 | 0.71
25 | COc1ccc([C@H](CC(=O)O)N(C)C(=O)CCCCc2nc3c(cc2N)CCCN3)cn1 | -0.3
